Results taken from patent US6545167B1, “Simple and effective manufacturing process for large scale recovery of Nimbin, a Neem seed constituent” (Fortune Bio-Tech Limited, priority 2002, dated 2003).

Tests used:
[1] = test study of pure Nimbin in humans: analgesic effects; assay type: in vivo; details: pure Nimbin consumed orally (10 mg/day)
Procedure: (§1) For example, pure Nimbin has been consumed orally (10 mg/day) in a test study to observe therapeutic/pharmacological effects of the compound various systems/maladies in humans.

benign tumors = experiment: systemic administration of Nimbin: benign tumors; assay type: in vivo, humans
Procedure: as §1

skin = experiment: topical administration of Nimbin: tone of the skin; assay type: in vivo, humans
[2] = system: several classes of insects (Lepidoptera, Coleoptera, Homoptera); experiment: insecticidal action of Nimbin; assay type: in vivo; details: diamondback moth, imported cabbage worm, cabbage looper, tobacco budworm, Colorado potato beetle, green apple aphid, green peach aphid, potato leafhopper

## COC(=O)C[C@H]1[C@]2(C)C3=C(C)[C@H](c4ccoc4)C[C@H]3O[C@@H]2[C@H](OC(C)=O)[C@@H]2[C@]1(C)C(=O)C=C[C@@]2(C)C(=O)OC [Nimbin]
[1]
  analgesic effects: analgesic effects
Benign tumors
  action on benign tumors: regressive actions on benign tumors
skin
  effect on tone of the skin: modulates the tone of the skin
[2]
  insecticidal action: broad spectrum insecticidal action
